This is an account of results in article PMC12476894, “Identification of α‑Azacyclic Acetamide-Based Inhibitors of P. falciparum Na^+ Pump (PfATP4) with Fast-Killing Asexual Blood-Stage Antimalarial Activity by Phenotypic Screening” (ACS Infectious Diseases, 2025).

Each structure is given as a SMILES string. Where two headings read alike, the source gives them in different places.

One assay deals with Dd2^P412L (PfATP4^P412L). Put plainly: Drug susceptibility assay for cross-resistance profiling (Fidock Lab), P412L. Type of assay: cell-based, Plasmodium falciparum. Particulars: Table 3 data set; for EC50: Plasmodium falciparum, DD2, 15-selected line.
The test system of a further assay is PfD10 attB. Put plainly: 72 h SYBR Green growth inhibition, PfD10 attB. It is filed as cell-based. The conditions noted are these: Plasmodium falciparum; 72 h SYBR Green assay.
The subject of the next assay is PfDd2 parasites. Put plainly: Resistance selection by drug pulses, time to recrudescence. It is filed as cell-based, Plasmodium falciparum. As for the experimental part: (§1) To confirm the MOA for the α-azacyclic acetamides against P. falciparum and to obtain potential information about whether or not they bind PfATP4 at an overlapping site with that of KAE609, we undertook resistance selections using PfDd2 parasites using the published cycling drug selection method. , α-Azacyclic acetamides 2 and 3 were chosen as representative examples of the pyrrole- and indole-based series, respectively. […] Additional cycles were performed at 20 × EC50, until resistant parasites were detected based on a fold change in EC50 compared to the parental clonal Dd2 line (Table S3). Resistant parasites were detected in the 2-selections in all 4 flasks after 4 pulses and for 3-selections in 3 flasks after 5 pulses. Clonal lines were generated from each flask, and one clone per flask was selected for WGS and EC50 determination (Tables S4 and S5). WGS analysis identified two single point mutations in PfATP4 that were not present in the original clonal Dd2 parasite line (Tables and S4). P412L was found in three of four flasks containing 2-selected resistance clones, and F917L was identified in all three flasks containing 3-selected clones and in the fourth flask containing 2-selected clones (Table S4). PfATP4 mutations identified by the WGS analysis in parasite lines were verified by PCR of the pfatp4 gene, followed by Sanger sequencing (Figures S5, S6 and Table S6). An additional protein coding gene (ribosomal protein S8e) was mutated in the 2-selections. However, this mutation was identified in only one of four sequenced clones and is therefore unlikely to be related to resistance to 2 (Figure S7). All three resistant clones derived from the 3-selections harbored an identical mutation in a gene (pfcpu) encoding a conserved protein of unknown function, which was absent in the parental line (Figure S8).
(§2) Resistant Dd2 parasites were selected using a high-pressure intermittent selection protocol using a previously described method. Selections were set up using 4 flasks per compound starting with approximately 3 × 10^9 parasites per flask (80 mL per flask, 4% hematocrit, 3% parasitemia at the beginning of each pulse, mostly ring-stage parasites via previous sorbitol synchronization. Pulse 1 and 2 (48 h) were conducted at 10xEC50, and subsequent pulses were conducted at 20xEC50. Parasites cleared within 48 h under these conditions. 3-Selections used a total of 4 pulses, while 2-selections required 5 pulses before resistant parasites emerged (Table S3). Culture media was replenished daily for a week after each pulse, then every 2 days with weekly replenishment of blood. Cultures were monitored by microscopy until recrudescence. Clonal parasites were obtained from each flask by limiting dilution and maintained in drug free RPMI-1640 media prior to being analyzed for EC50 shifts. Established clonal lines were aliquoted and stored at −80 °C after suspension in Glycerolyte 57 solution (Baxter Cat no 4A7831).

For assay [1], the system named is P. falciparum NF54^luc parasites. Put plainly: Luciferase reporter (LR) / BRRoK assay, PfNF54^luc. The conditions noted are these: Plasmodium falciparum, NF54, Hec50, 72 h. It is filed as cell-based. (In general: In a reporter assay the amount or activity of a reporter protein is the signal.)
The test system of assay [2] is PfDd2 parasites, 2- or 3-selected bulk cultures. Put plainly: EC50 of bulk cultures after rounds of resistance selection. Type of assay: cell-based. Particulars: Plasmodium falciparum, read-out: bulk culture EC50. The protocol: as §1, §2
The test system of a further assay is Dd2-B2 (PfATP4^WT). Put plainly: Drug susceptibility assay for cross-resistance profiling (Fidock Lab), parental line. It is filed as cell-based, Plasmodium falciparum. The conditions noted are these: Plasmodium falciparum, DD2, 72 h, read-out: EC50, Dd2-B2.

Take `Cc1ccnc(NC(=O)Cn2cccc2-c2nc(-c3ccccc3)cs2)c1` [compound 2, N-(4-methylpyridin-2-yl)-2-(2-(4-phenylthiazol-2-yl)-1H-pyrrol-1-yl)acetamide]: the EC50 came out at 34 ± 1.3 µM with Dd2^P412L (PfATP4^P412L); 1.2 µM in the assay with PfD10 attB; 0.47 ± 0.051 µM in assay [1]; 0.57 µM in assay [2] (2-selected Flask 1, after Pulse 3 (20×EC50)); 8.4 µM in assay [2] (2-selected Flask 1, after Pulse 4 (20×EC50)); 0.58 µM in assay [2] (2-selected Flask 2, after Pulse 3 (20×EC50)). The EC50 in assay [2] (2-selected Flask 2, after Pulse 4 (20×EC50)) is above 10 µM; in assay [2] (2-selected Flask 3, after Pulse 3 (20×EC50)), 1.1 µM; in assay [2] (2-selected Flask 3, after Pulse 4 (20×EC50)), above 10 µM; in assay [2] (2-selected Flask 4, after Pulse 3 (20×EC50)) it was 0.81 µM; in assay [2] (2-selected Flask 4, after Pulse 4 (20×EC50)), 6.6 µM; in the assay on Dd2-B2 (PfATP4^WT) it was 0.38 ± 0.031 µM. Further, the “EC50 fold-change vs Dd2-B2, Dd2^P412L” value in the assay on Dd2^P412L (PfATP4^P412L) is 89 fold. The “Time to Recrudescence” value in the assay with PfDd2 parasites (Pulse 1, 10×EC50, Flasks #1-4) is 8 days; in the assay on PfDd2 parasites (Pulse 2, 10×EC50, Flasks #1-4) it was 6 days; in the assay on PfDd2 parasites (Pulse 3, 20×EC50, Flasks #1-4), 7 days; in the assay on PfDd2 parasites (Pulse 4, 20×EC50, Flasks #1-4) it was 3 days; in the assay on PfDd2 parasites (Pulse 5, 20×EC50, Flasks #1-4, after pulse) it was 2 days.
For `Cc1nn(CCNC(=O)Cn2c(C)c(C#N)c3ccccc32)c(C)c1Cl` [compound 3, N-(2-(4-chloro-3,5-dimethyl-1H-pyrazol-1-yl)ethyl)-2-(3-cyano-2-methyl-1H-indol-1-yl)acetamide], the EC50 with Dd2^P412L (PfATP4^P412L) came to 4.1 ± 0.45 µM; with PfD10 attB, 1.3 µM; in assay [1], 0.72 ± 0.0031 µM; in assay [2] (3-selected Flask 1, after Pulse 2 (10×EC50)), 0.72 µM; in assay [2] (3-selected Flask 1, after Pulse 3 (20×EC50)), 1.2 µM; in assay [2] (3-selected Flask 2, after Pulse 2 (10×EC50)), 0.84 µM. In addition, the half-maximal effective concentration (EC50) was above 10 µM in assay [2] (3-selected Flask 2, after Pulse 3 (20×EC50)); 1 µM in assay [2] (3-selected Flask 3, after Pulse 2 (10×EC50)); above 10 µM in assay [2] (3-selected Flask 3, after Pulse 3 (20×EC50)); 1.1 µM in assay [2] (3-selected Flask 4, after Pulse 2 (10×EC50)); above 10 µM in assay [2] (3-selected Flask 4, after Pulse 3 (20×EC50)); 0.54 ± 0.054 µM in the assay on Dd2-B2 (PfATP4^WT). The “EC50 fold-change vs Dd2-B2, Dd2^P412L” value in the assay with Dd2^P412L (PfATP4^P412L) was 7.6 fold. In addition, the “Time to Recrudescence” value with PfDd2 parasites (Pulse 1, 10×EC50, Flasks #1-4) amounted to 5 days; in the assay on PfDd2 parasites (Pulse 2, 10×EC50, Flasks #1-4) it was 4 days; in the assay with PfDd2 parasites (Pulse 3, 20×EC50, Flasks #1-4), 4 days; in the assay with PfDd2 parasites (Pulse 4, 20×EC50, Flask #1), 6 days; with PfDd2 parasites (Pulse 4, 20×EC50, Flasks 2 - 4), 2 days.

A word on the EC50: it is the midpoint of the concentration-response curve.
